According to the kinase profiling compilation of Christmann-Franck et al. (2016):

Experiments:
Test in all cases: radiometric filter-binding kinase assay, Kinase HotSpot
Conditions in all cases: compound 0.5 µM; ATP 10 µM
ULK2 (human) = ULK2 (human) (UniProt Q8IYT8)
RAF1 (human) = RAF1 (human) (UniProt P04049)
PRKX (human) = PRKX (human) (UniProt P51817)
ERBB4 (human) = ERBB4 (human) (UniProt Q15303)
FER (human) = FER (human) (UniProt P16591)
ALK (human) = ALK (human) (UniProt Q9UM73)
MST4 (human) = MST4 (human) (UniProt Q9P289)
DYRK4 (human) = DYRK4 (human) (UniProt Q9NR20)
PHKG2 (human) = PHKG2 (human) (UniProt P15735)
MST1R (human) = MST1R (human) (UniProt Q04912)
MAP3K14 (human) = MAP3K14 (human) (UniProt Q99558)
RPS6KB2 (human) = RPS6KB2 (human) (UniProt Q9UBS0)
DSTYK (human) = DSTYK (human) (UniProt Q6XUX3)
PAK4 (human) = PAK4 (human) (UniProt O96013)
PAK4 (human), sequence (O96013 whole entry, looked up): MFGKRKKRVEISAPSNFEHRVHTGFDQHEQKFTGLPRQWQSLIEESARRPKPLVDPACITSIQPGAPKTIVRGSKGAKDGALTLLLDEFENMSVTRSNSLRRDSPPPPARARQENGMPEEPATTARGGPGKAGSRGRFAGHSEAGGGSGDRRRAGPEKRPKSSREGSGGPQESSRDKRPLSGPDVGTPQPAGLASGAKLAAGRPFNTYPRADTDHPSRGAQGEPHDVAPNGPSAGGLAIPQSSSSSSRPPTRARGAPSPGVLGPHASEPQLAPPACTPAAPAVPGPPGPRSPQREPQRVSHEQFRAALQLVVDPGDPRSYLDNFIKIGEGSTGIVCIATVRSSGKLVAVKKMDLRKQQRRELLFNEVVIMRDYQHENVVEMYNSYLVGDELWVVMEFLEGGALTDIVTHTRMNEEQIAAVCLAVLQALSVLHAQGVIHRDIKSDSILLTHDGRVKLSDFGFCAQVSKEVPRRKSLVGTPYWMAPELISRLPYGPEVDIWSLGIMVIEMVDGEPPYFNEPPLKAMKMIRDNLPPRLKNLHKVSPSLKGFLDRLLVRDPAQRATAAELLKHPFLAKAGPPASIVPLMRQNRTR

MAP2K2 (human) = MAP2K2 (human) (UniProt P36507)
CAMK1 (human) = CAMK1 (human) (UniProt Q14012)
CLK4 (human) = CLK4 (human) (UniProt Q9HAZ1)
MAP3K8 (human) = MAP3K8 (human) (UniProt P41279)
MAP3K8 (human), sequence (P41279 whole entry, looked up): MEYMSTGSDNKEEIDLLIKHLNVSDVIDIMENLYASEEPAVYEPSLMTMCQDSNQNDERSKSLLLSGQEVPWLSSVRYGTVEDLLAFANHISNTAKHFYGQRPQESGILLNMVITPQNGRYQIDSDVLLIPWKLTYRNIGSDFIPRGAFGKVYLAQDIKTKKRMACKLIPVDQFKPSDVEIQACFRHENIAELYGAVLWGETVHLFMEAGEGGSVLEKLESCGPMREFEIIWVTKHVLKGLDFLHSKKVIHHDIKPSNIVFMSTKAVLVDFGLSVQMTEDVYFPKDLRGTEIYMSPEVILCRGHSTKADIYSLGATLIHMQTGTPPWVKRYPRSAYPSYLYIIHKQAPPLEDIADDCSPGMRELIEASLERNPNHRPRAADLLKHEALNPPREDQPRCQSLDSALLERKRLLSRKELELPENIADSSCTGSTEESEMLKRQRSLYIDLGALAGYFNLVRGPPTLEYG

CLK3 (human) = CLK3 (human) (UniProt P49761)
KDR (human) = KDR (human) (UniProt P35968)
ROCK1 (human) = ROCK1 (human) (UniProt Q13464)
ROCK1 (human), sequence (Q13464 whole entry, looked up): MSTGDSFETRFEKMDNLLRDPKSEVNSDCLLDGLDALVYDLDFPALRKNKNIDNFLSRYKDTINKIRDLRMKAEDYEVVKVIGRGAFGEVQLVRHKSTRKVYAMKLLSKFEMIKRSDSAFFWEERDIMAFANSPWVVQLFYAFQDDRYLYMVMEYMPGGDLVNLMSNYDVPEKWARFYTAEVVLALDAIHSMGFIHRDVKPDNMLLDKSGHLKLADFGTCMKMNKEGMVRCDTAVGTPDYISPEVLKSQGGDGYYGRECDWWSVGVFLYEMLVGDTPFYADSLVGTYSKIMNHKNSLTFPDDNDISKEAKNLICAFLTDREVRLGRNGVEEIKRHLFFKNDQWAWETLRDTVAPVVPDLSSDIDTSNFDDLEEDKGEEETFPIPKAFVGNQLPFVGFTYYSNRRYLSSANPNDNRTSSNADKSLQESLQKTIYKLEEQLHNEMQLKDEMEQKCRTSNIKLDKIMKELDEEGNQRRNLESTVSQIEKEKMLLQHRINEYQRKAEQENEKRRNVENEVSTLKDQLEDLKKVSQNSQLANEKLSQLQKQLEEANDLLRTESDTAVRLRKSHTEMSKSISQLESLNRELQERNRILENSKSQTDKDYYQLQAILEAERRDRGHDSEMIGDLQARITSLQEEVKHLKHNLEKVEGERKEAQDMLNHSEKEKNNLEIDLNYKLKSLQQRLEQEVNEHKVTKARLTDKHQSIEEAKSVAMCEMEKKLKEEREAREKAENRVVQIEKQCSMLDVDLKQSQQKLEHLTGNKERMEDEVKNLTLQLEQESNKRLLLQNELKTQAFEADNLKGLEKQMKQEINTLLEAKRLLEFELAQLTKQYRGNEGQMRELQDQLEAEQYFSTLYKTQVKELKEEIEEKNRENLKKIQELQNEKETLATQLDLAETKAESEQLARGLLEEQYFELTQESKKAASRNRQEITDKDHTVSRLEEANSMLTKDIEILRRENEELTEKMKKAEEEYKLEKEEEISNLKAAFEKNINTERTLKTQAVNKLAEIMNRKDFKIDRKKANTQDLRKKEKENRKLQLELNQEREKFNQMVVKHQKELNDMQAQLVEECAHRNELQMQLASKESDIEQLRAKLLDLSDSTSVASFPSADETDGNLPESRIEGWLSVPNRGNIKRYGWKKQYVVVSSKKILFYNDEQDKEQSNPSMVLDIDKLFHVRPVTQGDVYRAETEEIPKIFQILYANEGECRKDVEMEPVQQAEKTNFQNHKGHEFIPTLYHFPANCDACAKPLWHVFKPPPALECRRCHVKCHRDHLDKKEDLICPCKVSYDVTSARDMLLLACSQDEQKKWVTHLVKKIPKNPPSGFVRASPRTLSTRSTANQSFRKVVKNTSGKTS

CSF1R (human) = CSF1R (human) (UniProt P07333)
PAK6 (human) = PAK6 (human) (UniProt Q9NQU5)
EPHB2 (human) = EPHB2 (human) (UniProt P29323)
EPHB2 (human), sequence (P29323 whole entry, looked up): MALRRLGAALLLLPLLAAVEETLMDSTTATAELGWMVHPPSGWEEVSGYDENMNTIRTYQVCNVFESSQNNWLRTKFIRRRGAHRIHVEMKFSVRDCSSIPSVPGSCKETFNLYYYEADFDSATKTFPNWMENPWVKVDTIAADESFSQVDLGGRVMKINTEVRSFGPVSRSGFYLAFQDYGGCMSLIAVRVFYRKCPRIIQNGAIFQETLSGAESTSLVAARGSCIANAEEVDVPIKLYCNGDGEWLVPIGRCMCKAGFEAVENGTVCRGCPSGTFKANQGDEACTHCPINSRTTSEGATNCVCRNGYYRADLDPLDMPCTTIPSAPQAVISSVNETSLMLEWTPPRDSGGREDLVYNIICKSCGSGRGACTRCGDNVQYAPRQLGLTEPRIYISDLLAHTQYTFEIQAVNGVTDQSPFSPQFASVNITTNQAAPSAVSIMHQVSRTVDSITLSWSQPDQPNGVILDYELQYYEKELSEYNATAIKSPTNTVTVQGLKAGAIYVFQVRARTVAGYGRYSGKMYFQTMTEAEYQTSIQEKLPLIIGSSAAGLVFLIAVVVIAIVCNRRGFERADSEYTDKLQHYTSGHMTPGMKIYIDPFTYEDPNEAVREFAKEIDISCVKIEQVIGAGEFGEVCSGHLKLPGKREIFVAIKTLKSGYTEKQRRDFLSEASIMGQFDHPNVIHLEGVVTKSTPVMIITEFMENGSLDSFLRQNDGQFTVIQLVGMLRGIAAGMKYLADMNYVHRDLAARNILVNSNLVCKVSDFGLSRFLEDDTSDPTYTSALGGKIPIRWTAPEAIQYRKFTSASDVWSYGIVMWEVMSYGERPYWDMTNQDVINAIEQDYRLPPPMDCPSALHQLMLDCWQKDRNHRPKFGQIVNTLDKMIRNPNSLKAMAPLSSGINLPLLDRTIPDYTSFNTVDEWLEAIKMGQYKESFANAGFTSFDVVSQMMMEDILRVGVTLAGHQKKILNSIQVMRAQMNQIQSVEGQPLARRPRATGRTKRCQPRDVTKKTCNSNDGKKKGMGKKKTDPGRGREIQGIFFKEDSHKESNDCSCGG

TAOK2 (human) = TAOK2 (human) (UniProt Q9UL54)
NEK7 (human) = NEK7 (human) (UniProt Q8TDX7)
IRAK4 (human) = IRAK4 (human) (UniProt Q9NWZ3)
MARK4 (human) = MARK4 (human) (UniProt Q96L34)
PNCK (human) = PNCK (human) (UniProt Q6P2M8)
ZAP70 (human) = ZAP70 (human) (UniProt P43403)
ZAP70 (human), sequence (P43403 whole entry, looked up): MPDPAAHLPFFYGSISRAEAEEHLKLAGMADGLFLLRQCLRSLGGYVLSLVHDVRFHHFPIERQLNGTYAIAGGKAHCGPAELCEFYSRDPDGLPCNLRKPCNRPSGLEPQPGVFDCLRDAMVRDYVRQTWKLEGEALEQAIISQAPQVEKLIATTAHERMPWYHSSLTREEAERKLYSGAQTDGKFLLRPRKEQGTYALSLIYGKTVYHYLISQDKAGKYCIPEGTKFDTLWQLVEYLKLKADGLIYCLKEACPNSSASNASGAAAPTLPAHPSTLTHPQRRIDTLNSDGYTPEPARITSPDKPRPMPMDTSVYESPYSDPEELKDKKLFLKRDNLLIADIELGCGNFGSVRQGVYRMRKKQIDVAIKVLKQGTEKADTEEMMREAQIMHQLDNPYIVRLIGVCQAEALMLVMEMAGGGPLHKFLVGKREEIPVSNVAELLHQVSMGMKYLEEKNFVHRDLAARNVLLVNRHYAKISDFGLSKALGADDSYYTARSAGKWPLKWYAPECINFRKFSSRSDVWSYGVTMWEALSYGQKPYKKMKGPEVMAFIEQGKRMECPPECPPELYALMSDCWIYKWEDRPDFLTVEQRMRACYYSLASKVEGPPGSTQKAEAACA

STK11 (human) = STK11 (human) (UniProt Q15831)
STK11 (human), sequence (Q15831 whole entry, looked up): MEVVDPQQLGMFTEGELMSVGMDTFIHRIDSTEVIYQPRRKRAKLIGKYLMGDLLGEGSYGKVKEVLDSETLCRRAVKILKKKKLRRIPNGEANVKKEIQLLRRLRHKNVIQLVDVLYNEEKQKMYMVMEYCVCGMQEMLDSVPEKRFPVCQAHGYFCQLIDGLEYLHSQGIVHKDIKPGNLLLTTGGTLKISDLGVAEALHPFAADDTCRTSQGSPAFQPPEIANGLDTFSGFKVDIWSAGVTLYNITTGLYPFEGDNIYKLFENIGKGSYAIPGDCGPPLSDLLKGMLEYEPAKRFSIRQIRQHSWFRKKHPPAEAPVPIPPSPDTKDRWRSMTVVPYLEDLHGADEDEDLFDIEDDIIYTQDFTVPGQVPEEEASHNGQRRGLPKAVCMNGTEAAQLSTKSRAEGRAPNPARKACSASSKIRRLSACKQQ

HIPK2 (human) = HIPK2 (human) (UniProt Q9H2X6)
MAPK9 (human) = MAPK9 (human) (UniProt P45984)
MAPK10 (human) = MAPK10 (human) (UniProt P53779)
CLK2 (human) = CLK2 (human) (UniProt P49760)
CLK2 (human), sequence (P49760 whole entry, looked up): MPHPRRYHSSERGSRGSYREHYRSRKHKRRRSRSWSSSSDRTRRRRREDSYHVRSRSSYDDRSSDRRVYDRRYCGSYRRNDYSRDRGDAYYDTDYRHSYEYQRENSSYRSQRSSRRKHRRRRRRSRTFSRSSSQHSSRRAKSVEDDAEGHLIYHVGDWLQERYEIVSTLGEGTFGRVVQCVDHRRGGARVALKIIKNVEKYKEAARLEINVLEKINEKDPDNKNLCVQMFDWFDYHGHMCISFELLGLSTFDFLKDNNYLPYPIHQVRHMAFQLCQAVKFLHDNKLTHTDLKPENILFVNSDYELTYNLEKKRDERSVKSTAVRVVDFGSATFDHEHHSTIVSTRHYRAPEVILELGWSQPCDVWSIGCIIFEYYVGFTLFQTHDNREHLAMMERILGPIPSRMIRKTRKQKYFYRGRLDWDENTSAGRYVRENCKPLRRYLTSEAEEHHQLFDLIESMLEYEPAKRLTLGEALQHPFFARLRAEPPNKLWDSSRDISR

JAK3 JH1 JH2 (human) = JAK3 JH1 JH2 (human) (UniProt P52333)
CDK5 CDK5R1 p25 (human) = CDK5 CDK5R1 p25 (human) (UniProt Q00535+Q15078)
CSNK1G3 (human) = CSNK1G3 (human) (UniProt Q9Y6M4)
TEK (human) = TEK (human) (UniProt Q02763)
LTK (human) = LTK (human) (UniProt P29376)
NUAK1 (human) = NUAK1 (human) (UniProt O60285)
TGFBR1 (human) = TGFBR1 (human) (UniProt P36897)

**Q.** Which residual activity (ULK2 (human)) does the source give for `CN([C@@H](Cc1ccc(OS(=O)(=O)c2cccc3cnccc23)cc1)C(=O)N1CCN(c2ccccc2)CC1)S(=O)(=O)c1cccc2cnccc12` here?
**A.** Its residual activity is 106%.

**Q.** And the residual activity (RAF1 (human))?
**A.** Its residual activity is 96.9%.

**Q.** And the residual activity (PRKX (human))?
**A.** Its residual activity is 109%.

**Q.** And the residual activity (ERBB4 (human))?
**A.** Its residual activity is 103%.

**Q.** What about the residual activity (FER (human)) of the same compound?
**A.** The residual activity was 100%.

**Q.** And the residual activity (ALK (human))?
**A.** The residual activity was 96.5%.

**Q.** What about the residual activity (MST4 (human)) of the same compound?
**A.** The residual activity was 109%.

**Q.** And the residual activity (DYRK4 (human))?
**A.** Its residual activity is 97.8%.

**Q.** And the residual activity (PHKG2 (human))?
**A.** The residual activity was 101%.

**Q.** And the residual activity (MST1R (human))?
**A.** Its residual activity is 94.4%.

**Q.** And the residual activity (MAP3K14 (human))?
**A.** The residual activity was 90.7%.

**Q.** What about the residual activity (RPS6KB2 (human)) of the same compound?
**A.** The residual activity was 96.6%.

**Q.** And the residual activity (DSTYK (human))?
**A.** The residual activity was 97.4%.

**Q.** What about the residual activity (PAK4 (human)) of the same compound?
**A.** Its residual activity is 94.6%.

**Q.** What about the residual activity (MAP2K2 (human)) of the same compound?
**A.** Its residual activity is 119%.

**Q.** What about the residual activity (CAMK1 (human)) of the same compound?
**A.** Its residual activity is 105%.

**Q.** What about the residual activity (CLK4 (human)) of the same compound?
**A.** The residual activity was 97.2%.

**Q.** And the residual activity (MAP3K8 (human))?
**A.** The residual activity was 99.3%.

**Q.** What about the residual activity (CLK3 (human)) of the same compound?
**A.** The residual activity was 103%.

**Q.** And the residual activity (KDR (human))?
**A.** Its residual activity is 100%.

**Q.** And the residual activity (ROCK1 (human))?
**A.** Its residual activity is 97.9%.

**Q.** And the residual activity (CSF1R (human))?
**A.** Its residual activity is 95.1%.

**Q.** What about the residual activity (PAK6 (human)) of the same compound?
**A.** The residual activity was 102%.

**Q.** What about the residual activity (EPHB2 (human)) of the same compound?
**A.** The residual activity was 103%.

**Q.** What about the residual activity (TAOK2 (human)) of the same compound?
**A.** Its residual activity is 98.3%.

**Q.** What about the residual activity (NEK7 (human)) of the same compound?
**A.** The residual activity was 93.3%.

**Q.** What about the residual activity (IRAK4 (human)) of the same compound?
**A.** The residual activity was 92.1%.

**Q.** And the residual activity (MARK4 (human))?
**A.** Its residual activity is 98.8%.

**Q.** And the residual activity (PNCK (human))?
**A.** Its residual activity is 99.7%.

**Q.** What about the residual activity (ZAP70 (human)) of the same compound?
**A.** Its residual activity is 99.5%.

**Q.** And the residual activity (STK11 (human))?
**A.** Its residual activity is 99%.

**Q.** And the residual activity (HIPK2 (human))?
**A.** The residual activity was 109%.

**Q.** And the residual activity (MAPK9 (human))?
**A.** The residual activity was 85.6%.

**Q.** And the residual activity (MAPK10 (human))?
**A.** Its residual activity is 88.2%.

**Q.** And the residual activity (CLK2 (human))?
**A.** Its residual activity is 93%.

**Q.** And the residual activity (JAK3 JH1 JH2 (human))?
**A.** The residual activity was 98%.

**Q.** And the residual activity (CDK5 CDK5R1 p25 (human))?
**A.** The residual activity was 93.5%.

**Q.** And the residual activity (CSNK1G3 (human))?
**A.** The residual activity was 104%.

**Q.** What about the residual activity (TEK (human)) of the same compound?
**A.** Its residual activity is 106%.

**Q.** What about the residual activity (LTK (human)) of the same compound?
**A.** Its residual activity is 102%.

**Q.** What about the residual activity (NUAK1 (human)) of the same compound?
**A.** The residual activity was 97.5%.

**Q.** With `Nc1nnc2[nH]c3ccccc3nc1-2` as the compound, how does the residual activity (ULK2 (human)) read?
**A.** The residual activity was 95.9%.

**Q.** What about the residual activity (RAF1 (human)) of the same compound?
**A.** Its residual activity is 94.4%.

**Q.** What about the residual activity (PRKX (human)) of the same compound?
**A.** Its residual activity is 102%.

**Q.** And the residual activity (FER (human))?
**A.** The residual activity was 94.4%.

**Q.** And the residual activity (ALK (human))?
**A.** The residual activity was 96.7%.

**Q.** And the residual activity (MST4 (human))?
**A.** Its residual activity is 91.2%.

**Q.** And the residual activity (DYRK4 (human))?
**A.** Its residual activity is 89.2%.

**Q.** And the residual activity (PHKG2 (human))?
**A.** Its residual activity is 96.6%.

**Q.** And the residual activity (MST1R (human))?
**A.** The residual activity was 105%.

**Q.** And the residual activity (MAP3K14 (human))?
**A.** The residual activity was 99.2%.

**Q.** And the residual activity (RPS6KB2 (human))?
**A.** Its residual activity is 102%.

**Q.** And the residual activity (DSTYK (human))?
**A.** Its residual activity is 96%.

**Q.** And the residual activity (PAK4 (human))?
**A.** The residual activity was 104%.

**Q.** What about the residual activity (MAP2K2 (human)) of the same compound?
**A.** The residual activity was 104%.

**Q.** And the residual activity (TGFBR1 (human))?
**A.** Its residual activity is 98.1%.

**Q.** What about the residual activity (CAMK1 (human)) of the same compound?
**A.** The residual activity was 94.4%.

**Q.** What about the residual activity (CLK4 (human)) of the same compound?
**A.** The residual activity was 86.9%.

**Q.** And the residual activity (MAP3K8 (human))?
**A.** Its residual activity is 81.3%.

**Q.** What about the residual activity (CLK3 (human)) of the same compound?
**A.** Its residual activity is 94.3%.

**Q.** What about the residual activity (KDR (human)) of the same compound?
**A.** Its residual activity is 95.8%.

**Q.** What about the residual activity (ROCK1 (human)) of the same compound?
**A.** Its residual activity is 99%.

**Q.** And the residual activity (CSF1R (human))?
**A.** Its residual activity is 95.3%.

**Q.** What about the residual activity (PAK6 (human)) of the same compound?
**A.** The residual activity was 96.3%.

**Q.** What about the residual activity (EPHB2 (human)) of the same compound?
**A.** Its residual activity is 103%.

**Q.** And the residual activity (TAOK2 (human))?
**A.** Its residual activity is 103%.

**Q.** What about the residual activity (NEK7 (human)) of the same compound?
**A.** The residual activity was 93.1%.

**Q.** And the residual activity (IRAK4 (human))?
**A.** The residual activity was 94.7%.

**Q.** And the residual activity (MARK4 (human))?
**A.** Its residual activity is 99.8%.

**Q.** And the residual activity (PNCK (human))?
**A.** The residual activity was 102%.

**Q.** And the residual activity (ZAP70 (human))?
**A.** Its residual activity is 102%.

**Q.** What about the residual activity (STK11 (human)) of the same compound?
**A.** The residual activity was 85.7%.

**Q.** And the residual activity (HIPK2 (human))?
**A.** The residual activity was 95.9%.

**Q.** What about the residual activity (MAPK9 (human)) of the same compound?
**A.** The residual activity was 103%.

**Q.** And the residual activity (MAPK10 (human))?
**A.** The residual activity was 92.1%.

**Q.** What about the residual activity (CLK2 (human)) of the same compound?
**A.** The residual activity was 96.1%.

**Q.** And the residual activity (JAK3 JH1 JH2 (human))?
**A.** Its residual activity is 68%.

**Q.** What about the residual activity (CDK5 CDK5R1 p25 (human)) of the same compound?
**A.** The residual activity was 85.4%.

**Q.** And the residual activity (CSNK1G3 (human))?
**A.** Its residual activity is 95.6%.

**Q.** What about the residual activity (TEK (human)) of the same compound?
**A.** Its residual activity is 97%.

**Q.** What about the residual activity (LTK (human)) of the same compound?
**A.** The residual activity was 89.4%.

**Q.** What about the residual activity (NUAK1 (human)) of the same compound?
**A.** The residual activity was 86.3%.
